# US20140080810A1 (Exelixis, Inc., priority 2010, published 2014)
# Like-named read-outs stand apart in the source and are kept apart here.
# System: pAKT (T308) in MCF-7 cells (PI3Kα E545K)
# Test: pAKT (T308) ELISA Assay
# Type: cell-based
# Conditions: Homo sapiens, MCF7
# Procedure: MCF-7 cells (ATCC) cells were seeded at 24000 cells per well in 96-well plates (Corning, 3904) in DMEM (Cellgro) containing 10% FBS (Cellgro), 1% NEAA (Cellgro) and 1% penicillin-streptomycin (Cellgro). Cells were incubated at 37° C., 5% CO2 for 48 h, and the growth medium was replaced with serum-free DMEM or in medium containing 0.4% BSA. Serial dilutions of the test Compound in 0.3% DMSO (vehicle) were added to the cells and incubated for 3 h. At the end of the incubation period, cells were stimulated for 10 minutes by the addition of L-IGF (Sigma, I-1271) at a final concentration of 100 ng/ml. Afterwards, media was discarded from cell plates and 110 μl/well of cold lysis buffer (see table below) were added. Cell plates were incubated on ice and then put on shaker in 4° C. cold room for 1 h. Two capture plates (Thermo Scientific, Reacti-bind plate, 15042) were prepared for each cell plate by pre-coating with capture Akt antibody from the two sandwich ELISA antibody pairs used (Cell Signaling Technology 7142 and 7144). The Akt capture antibodies were diluted 1:100 in PBS and 100 μl of diluted capture antibody was added per well. Capture plates were incubated at 4 C overnight. Prior to use, capture plates were washed 3 times in TBS containing 0.1% Tween20 (Bio-Rad, 170-6351) (TBST) and blocked in blocking buffer (Thermo Scientific, Starting Block T20, 37543) for 1-2 h at room temperature. After 1 h of cell lysis, 85 μl of cell lysate/well was transferred to the capture plate for detection of pAkt(T308). 15 μl of cell lysate was transferred from same well to the second capture plate for detection of total Akt1. After incubation overnight at 4° C., plates were washed 3 times with 200 μL TBST. Primary antibodies, diluted 1:100 in blocking buffer, were added to the corresponding capture plates for pAkt(T308) (Cell Signaling Technology, 7144) and total Akt1 (Cell Signaling Technology, 7142) detection and incubated at room temperature for 1 h. Plates were washed 3 times with 200 μL of TBST. Goat anti-mouse secondary antibody (Cell Signaling Technology, 7076) conjugated to HRP was diluted 1:1000 in blocking buffer and 100 μl were added to each well and incubated for 30 minutes at room temperature. Plates were then washed 3 times with 200 μL of TBST. 100 μL of SuperSignal ELISA Femto stable peroxidase solution (Thermo Scientific, 37075) was added to each well. After 1 minute incubation, chemiluminescence was read on a Wallac Victor2 1420 multilabel counter. IC50 values were determined based on the ratio of pAkt(T308) to total Akt1 signal for Compound treated wells, normalized to the DMSO-treated control wells.
# In another embodiment, the pAKT ELISA Assay was performed by seeding cells onto 96-well plates (Corning, 3904) in their respective growth media at the densities listed in Table 5. Cells were incubated at 37° C., 5% CO2 for 48 h (except MDA-MB-453 cells which were cultured in the absence of CO2). Compounds were serially diluted in DMSO and subsequently diluted in serum-free DMEM. Test compounds were added to cells in serum-free DMEM at a final concentration of 0.3% DMSO and incubated for 3 h. Cells were lysed with 130 μL of ice-cold RIPA lysis buffer (50 mM Tris-HCl, pH 7.5; 0.5% sodium deoxycholic acid; 1% Triton X-100; 0.1% SDS; 150 mM NaCl) with protease and phosphatase inhibitors (1 mM EDTA, 1 mM NaF, 20 mM β-glycerophosphate, 1 mM Na-orthovanadate, Complete-Mini EDTA-free, Roche, 11836170001, and Phosphatase Inhibitor Cocktail I, Sigma, P2850), directly in 96-well plates. Cells were lysed on ice for 60-120 min at 4° C. The supernatants were added directly to capture ELISA plates previously pre-coated with rabbit anti-AKT capture antibody. ELISA assays for pAKT(T308) and total AKT were performed with the pAKT(T308) ELISA kit (Cell Signaling Technology, 7144) and AKT1 ELISA kit (Cell Signaling Technology, 7142). For the pAKT(T308) ELISA, 85 μL of cell lysate was added to each well. […]
# [1] = IGF1 stimulation, read-out: pAKT (T308) IC50 MCF-7 PI3Kα E545K IGF1
# [2] = Table 7, stimulation line of the head prints PI3Kα, read-out: Cellular pAKT (T308) IC50 PI3KαE545K MCF-7
SMILES,IC50 [1],IC50 [2]
Cc1nc2ncc(-c3ccc4c(c3)CN(c3nc(CN(C)C)nc5c3CC(C)(C)CC5)CCO4)cc2[nH]1 [Compound 693],0.12 µM,0.12 µM
Cc1nc2cc(-c3ccc4c(c3)CN(c3nc(CN(C)C)nc(C)c3C(C)C)CCO4)cnc2[nH]1 [Compound 694],0.135 µM,0.135 µM
COc1ccc2c(N3CCOc4ccc(-c5cnc6nc(C)[nH]c6c5)cc4C3)nc(CN(C)C)nc2c1 [Compound 696],1.65 µM,1.65 µM
CCNc1nc2ccc(-c3ccc4c(c3)CN(c3ccnc5cc(F)ccc35)CCO4)cc2[nH]1 [Compound 698],2.24 µM,2.24 µM
CCNc1nc2ccc(-c3ccc4c(c3)CN(c3ncnc(NCC)c3C)CCO4)cc2[nH]1 [Compound 699],2.4 µM,2.4 µM
